# In patent US20080103158A1, “METHODS FOR TREATING DELAYING THE PROGRESSION OF ALZHEIMER'S DISEASE WITH HETEROCYCLIC COMPOUNDS” (ZENYAKU KOGYO KABUSHIKI KAISHA, priority 2006, published 2008):
row,SMILES,melting point
1,"O=C1N=C2C=CC=CN2C1(Cc1ccc(-c2ccccc2)cc1)Cc1ccc(-c2ccccc2)cc1 [Compound 21, 3,3-bis(4-biphenylmethyl)imidazo[1,2-a]pyridin-2(3H)-one]",> 300 °C
2,"O=C1N=C2C=CC=CN2C12Cc1cc3ccccc3cc1C2 [Compound 53, spiro[imidazo[1,2-a]pyridin-2(3H)-one-3,2′-benzo[f]indan]]",214 °C (dec.)
3,"CCCCC1(CCCC)C(=O)N=C2CCCCN21 [Compound 73, 3,3-dibutyl-5,6,7,8-tetrahydroimidazo[1,2-a]pyridin-2(3H)-one]",35 to 40 °C
4,"C/C=C/CC1(C/C=C/C)C(=O)N=C2N=CC=CN21 [Compound 55, 3,3-di(2-butenyl)imidazo[1,2-a]pyrimidin-2(3H)-one]",149.5 °C (dec.)
5,"O=C1N=C2C(Cl)=CC(C(F)(F)F)=CN2C1(Cc1ccccc1)Cc1ccccc1 [Compound 14, 3,3-dibenzyl-8-chloro-6-trifluoromethylimidazo[1,2-a]pyridin-2(3H)-one]",234 to 236 °C
6,"O=C1N=C2CCCCN2C1(C1CCCCC1)C1CCCCC1 [Compound 72, 3,3-dicyclohexyl-5,6,7,8-tetrahydroimidazo[1,2-a]pyridin-2(3H)-one]",218 to 220 °C
7,"O=C1N=C2c3ccccc3C=CN2C12Cc1cc3nsnc3cc1C2 [Compound 62, spiro[imidazo[2,1-a]isoquinolin-2(3H)-one-3,2′-((1,2,5-thiadiazo)[4,5-c]indan)]]",271.5 °C (dec.)
8,"COC1=CC=CN2C1=NC(=O)C2(Cc1ccccc1)Cc1ccccc1 [Compound 3, 3,3-dibenzyl-8-methoxyimidazo[1,2-a]pyridin-2(3H)-one]",274 to 275 °C
9,"Oc1nc2ccccn2c1Cc1ccc2ccccc2c1 [Compound 52, 2-hydroxy-3-(2-naphthylmethyl)imidazo[1,2-a]pyridine]",205 °C (dec.)
10,"O=C1N=C2C=CC=CN2C1(Cc1ccc(F)cc1)Cc1ccc(F)cc1 [Compound 17, 3,3-bis(4-fluorobenzyl)imidazo[1,2-a]pyridin-2(3H)-one]",290 to 292 °C
11,"COC(=O)c1ccc(CC2(Cc3ccc(C(=O)OC)cc3)C(=O)N=C3C=CC=CN32)cc1 [Compound 40, 3,3-bis(4-methoxycarbonylbenzyl)imidazo[1,2-a]pyridin-2(3H)-one]",289 to 290 °C
12,"O=C1N=C2C=CC=CN2C1(Cc1ccc(O)cc1)Cc1ccc(O)cc1 [Compound 23, 3,3-bis(4-hydroxybenzyl)imidazo[1,2-a]pyridin-2(3H)-one]",276.5 to 277.5 °C
13,"C=CCOC1=CC=CN2C1=NC(=O)C2(Cc1ccccc1)Cc1ccccc1 [Compound 6, 8-allyloxy-3,3-dibenzylimidazo[1,2-a]pyridin-2(3H)-one]",214 to 215 °C
14,"O=C1N=C2CCCCN2C12Cc1ccccc1C2 [Compound 77, spiro[5,6,7,8-tetrahydroimidazo[1,2-a]pyridin-2(3H)-one-3,2′-indan]]",276.5 °C (dec.)
15,"O=C1N=C2N=CC=CN2C12Cc1ccccc1C2 [Compound 63, spiro[imidazo[1,2-a]pyrimidin-2(3H)-one-3,2′-indan]]",195.5 °C (dec.)
16,"C=CCC1(CC=C)C(=O)N=C2C=CC=CN21 [Compound 24, 3,3-diallylimidazo[1,2-a]pyridin-2(3H)-one]",64 to 66 °C
17,"O=C1N=C2SCCN2C1(Cc1ccccc1)Cc1ccccc1 [Compound 51, 5,5-dibenzyl-2,3-dihydroimidazo[2,1-b]thiazol-6(5H)-one]",233 to 236 °C
18,"O=C1N=C2c3ccccc3C=CN2C12Cc1ccccc1C2 [Compound 60, spiro[imidazo[2,1-a]isoquinolin-2(3H)-one-3,2′-indan]]",201 to 203 °C
19,"C=CCC1(CC=C)C(=O)N=C2c3ccccc3C=CN21 [Compound 68, 3,3-diallylimidazo[2,1-a]isoquinolin-2(3H)-one]",108 to 110 °C
20,"O=C1N=C2C=CC=CN2C1(Cc1cccs1)Cc1cccs1 [Compound 30, 3,3-bis(2-thienylmethyl)imidazo[1,2-a]pyridin-2(3H)-one]",289.5 °C (dec.)
21,"O=C1N=C2C(Cl)=CC(Cl)=CN2C1(Cc1ccccc1)Cc1ccccc1 [Compound 13, 3,3-dibenzyl-6,8-dichloroimidazo[1,2-a]pyridin-2(3H)-one]",260 to 261 °C
22,"O=C1N=C2C=CC(Cl)=CN2C1(Cc1ccccc1)Cc1ccccc1 [Compound 5, 3,3-dibenzyl-6-chloroimidazo[1,2-a]pyridin-2(3H)-one]",246 to 248 °C
23,"O=C1N=C2C(OCc3ccccc3)=CC=CN2C1(Cc1ccccc1)Cc1ccccc1 [Compound 7, 3,3-dibenzyl-8-benzyloxyimidazo[1,2-a]pyridin-2(3H)-one]",240 to 241 °C
24,"CC(C)OC1=CC=CN2C1=NC(=O)C2(Cc1ccccc1)Cc1ccccc1 [Compound 2, 3,3-dibenzyl-8-isopropoxyimidazo[1,2-a]pyridin-2(3H)-one]",247 to 248 °C
25,"O=C1N=C2C(OCC3CC3)=CC=CN2C1(Cc1ccccc1)Cc1ccccc1 [Compound 4, 3,3-dibenzyl-8-cyclopropylmethyloxy-imidazo[1,2-a]pyridin-2(3H)-one]",236 to 237 °C

row,SMILES,melting point
1,"O=C1N=C2C=CC=CN2C1Cc1ccccc1 (stereo not shown) [Compound 54, 3-benzylimidazo[1,2-a]pyridin-2(3H)-one]",182 °C (dec.)
2,"O=C1N=C2C=CC=CN2C1(Cc1ccco1)Cc1ccco1 [Compound 32, 3,3-bis(2-furylmethyl)imidazo[1,2-a]pyridin-2(3H)-one]",205 °C (dec.)
3,"O=C1N=C2C=CC=CN2C12Cc1cccc3cccc(c13)C2 [Compound 27, spiro[imidazo[1,2-a]pyridin-2(3H)-one-3,2′-[2,3]dihydrophenarene]]",262 °C (dec.)
4,"O=C1N=C2CCCCN2C12Cc1cc3ccccc3cc1C2 [Compound 76, spiro[5,6,7,8-tetrahydroimidazo[1,2-a]pyridin-2(3H)-one-3,2′-benzo[f]indan]]",252.5 °C (dec.)
5,"O=C1N=C2C(OC3CCCC3)=CC=CN2C1(Cc1ccccc1)Cc1ccccc1 [Compound 12, 3,3-dibenzyl-8-cyclopentyloxyimidazo[1,2-a]pyridin-2(3H)-one]",268 to 269 °C
6,"CC(c1ccccc1)C1(C(C)c2ccccc2)C(=O)N=C2C(OCc3ccccc3)=CC=CN21 (stereo not shown) [Compound 8, 8-benzyloxy-3,3-bis(1-phenylethyl)imidazo[1,2-a]pyridin-2(3H)-one]",234 to 235 °C
7,"O=C1N=C2C=CC=CN2C1(Cc1cccc(Cl)c1)Cc1cccc(Cl)c1 [Compound 19, 3,3-bis(3-chlorobenzyl)imidazo[1,2-a]pyridin-2(3H)-one]",271 to 272 °C
8,"CCCC1(CCC)C(=O)N=C2C=CC=CN21 [Compound 29, 3,3-dipropylimidazo[1,2-a]pyridin-2(3H)-one]",73 to 75 °C
9,"CC1=CC=CN2C1=NC(=O)C2(Cc1ccncc1)Cc1ccncc1 [Compound 16, 8-methyl-3,3-bis(4-pyridylmethyl)imidazo[1,2-a]pyridin-2(3H)-one]",228 to 230 °C
10,"O=C1N=C2C(NCc3ccccc3)=CC=CN2C1(Cc1ccccc1)Cc1ccccc1 [Compound 37, 3,3-dibenzyl-8-benzylaminoimidazo[1,2-a]pyridin-2(3H)-one]",250 °C
11,"N#Cc1cccc2c1CC1(C2)C(=O)N=C2C=CC=CN21 (stereo not shown) [Compound 59, spiro[imidazo[1,2-a]pyridin-2(3H)-one-3,2′-(4′-cyanoindan)]]",247.7 °C (dec.)
12,"O=C1N=C2C(OCc3ccccc3)=CC=CN2C12CC=CC2 [Compound 70, spiro[8-benzyloxyimidazo[1,2-a]pyridin-2(3H)-one-3,4′-(1′-cyclopentene)]]",178.5 to 180.5 °C
13,"C#CCC1(CC#C)C(=O)N=C2C=CC=CN21 [Compound 35, 3,3-di(2-propinyl)imidazo[1,2-a]pyridin-2(3H)-one]",172 to 175 °C
14,"O=C1N=C2C=CC=CN2C1(Cc1ccc(Cl)cc1)Cc1ccc(Cl)cc1 [Compound 78, 3,3-bis(4-chlorobenzyl)imidazo[1,2-a]pyridin-2(3H)-one]",293 to 296 °C
15,"CC1(C)C(=O)N=C2C=CC=CN21 [Compound 33, 3,3-dimethylimidazo[1,2-a]pyridin-2(3H)-one]",200 to 202 °C
16,"O=C1N=C2SC=CN2C1(Cc1ccccc1)Cc1ccccc1 [Compound 44, 5,5-dibenzylimidazo[2,1-b]thiazol-6(5H)-one]",> 300 °C
17,"COc1ccc2c(c1)CC1(C2)C(=O)N=C2C=CC=CN21 (stereo not shown) [Compound 57, spiro[imidazo[1,2-a]pyridin-2(3H)-one-3,2′-(5′-methoxyindan)]]",150 to 152 °C
18,"O=C1N=C2C=CC=CN2C12Cc1ccc(C(F)(F)F)cc1C2 (stereo not shown) [Compound 64, spiro[imidazo[1,2-a]pyridin-2(3H)-one-3,2′-(5′-trifluoromethylindan)]]",176.5 to 179.5 °C
19,"O=C1N=C2c3ccccc3C=CN2C12CCCC2 [Compound 75, spiro[imidazo[2,1-a]isoquinolin-2(3H)-one-3,1′-cyclopentane]]",164.5 to 167.5 °C
20,"O=C1N=C2C=CC=CN2C12Cc1cccc(F)c1C2 (stereo not shown) [Compound 56, spiro[imidazo[1,2-a]pyridin-2(3H)-one-3,2′-(4′-fluoroindan)]]",148 °C (dec.)
21,"O=C1N=C2C=CC=CN2C1(CCCc1ccccc1)CCCc1ccccc1 [Compound 26, 3,3-bis(3-phenyl-1-propyl)imidazo[1,2-a]pyridin-2(3H)-one]",227 to 228 °C
22,"CC(=O)NC1=CC=CN2C1=NC(=O)C2(Cc1ccccc1)Cc1ccccc1 [Compound 31, 8-acetylamino-3,3-dibenzylimidazo[1,2-a]pyridin-2(3H)-one]",235 to 237 °C
23,"O=C1N=C2C(O)=CC=CN2C1(Cc1ccccc1)Cc1ccccc1 [Compound 36, 3,3-dibenzyl-8-hydroxyimidazo[1,2-a]pyridin-2(3H)-one]",283 to 285 °C
24,"C=CCC1(CC=C)C(=O)N=C2C(OCc3ccccc3)=CC=CN21 [Compound 25, 3,3-diallyl-8-benzyloxyimidazo[1,2-a]pyridin-2(3H)-one]",160 to 162 °C
